Reference: patent publication US20230147249A1, “METHODS OF APPLYING A FUMIGANT TO REDUCE FUSARIUM CONTAMINATION” (Taminco BV, priority 2020, published 2023)

Assays:
Cavendish banana plants = experiment: Field trial: growth and development of banana plants after metam sodium soil injection at 30 cm and 60 cm; type: in vivo, Cavendish banana (Musa)
Method: The analyses described in this example were carried out in the Philippines in a field in which Musa trees (specifically bananas) were to be planted, in the spring (beginning in March). Final determinations were carried out in September of the same year.
(§1) Metam Sodium Application. Metam sodium 510 SL (equivalent to 42% w/w) was applied to soil at the following doses: 0 liters per hectare (L/ha), 750 L/ha, 1500 L/ha, 2250 L/ha, 3000 L/ha.
(§2) Prior to injection, soil was prepared using a rototiller to break the soil structure from 0 cm to 80 cm deep, allowing for the smooth and even injection application by an injection machine. The soil was then leveled and made uniform, and the metam sodium was applied at two depths: 30 cm and 60 cm, using injection methods. The temperature was at a minimum of 10 QC and soil humidity was between 50 and 60% holding capacity, allowing the applied product to transform from metam sodium (liquid) to MITC (gas).
(§3) The application was made using an injection machine wherein the machine lowered shanks and began moving forward such that the shanks lowered to a depth of 60 cm and injectors applied the metam sodium into the soil. When the injection at 60 cm was complete, the process was repeated for the entire field at 30 cm. The treated soil in the field was then sealed using a packer roller (which was part of the injection machinery, located at the back end of the machine), after each application.
Plant Selection and Transplantation. Cavendish banana plants were used for this investigation. In order to avoid plants already contaminated by other soil, all plants were produced in vitro using art-recognized methods. Plants were transplanted into the field 14 days after the final soil reading was taken (21 days after treatment).
Data Gathering. Data were gathered at monthly intervals beginning three months after banana plants were transplanted. A total of three data collection sessions were conducted. Data including the number of leaves, plant height, and girth size were collected.

[1] = tested on: F. oxysporum f. sp. cubense; experiment: Panama disease analysis of soil samples after metam sodium soil injection; type: in vivo, Fusarium oxysporum f. sp. cubense Tropical Race 4; settings: any of the treated groups (750-3000 L/ha); any day post application
Method: as §1, §2, §3
Soil Analysis. Soil samples were obtained at 20, 40, and 60 cm before application and every 24 hours beginning 48 hours after application, for seven days.
Plant Pathology Analysis. […]

Foc TR4 chlamydospores = experiment: Efficacy of metam sodium on Foc TR4 chlamydospores in vitro (colony growth on PDA plates); type: cell-based, Fusarium oxysporum f. sp. cubense Tropical Race 4
Method: Foc TR4 chlamydospores were extracted from infested soil and incubated with a dilution series of metam sodium for 5 min and 60 min at room temperature. Thereafter, the samples were diluted 10× to get reduction of the treatment and sufficient dilution of chlamydospores to avoid lack of resolution when grown on plate. Aliquots of 100 μl were plated on PDA plates in duplicate and incubated for 3 days at 25° C. Plates were photographed and scored.

[2] = 750 L/ha, six months after treatment
[3] = 1500 L/ha, six months after treatment
[4] = 2250 L/ha, six months after treatment
[5] = 3000 L/ha, six months after treatment

With `CNC(=S)[S-].[Na+]` [metam sodium, sodium N-methyldithiocarbamate] the “effect on average girth size of banana plant” value (Cavendish banana plants; 750 L/ha) was about 1 cm, the “increase in average height of banana plant” value (Cavendish banana plants; 750 L/ha) was about 5 cm and the “effect on plants reaching bagging stage” value (Cavendish banana plants; [2]) was “did not have a meaningful effect”. For the same molecule, the “percent of plants at either shooting or bagging stage” value (Cavendish banana plants; [2]) was 11%, the “percent of plants at shooting stage” value (Cavendish banana plants; [2]) was 9% and the “increase in average girth size of banana plant” value (Cavendish banana plants; 1500-3000 L/ha) was 4-6 cm. For the same molecule, the “increase in average height of banana plant” value (Cavendish banana plants; 1500-3000 L/ha) was 20-23 cm, the “percent of plants at either shooting or bagging stage” value (Cavendish banana plants; [3]) was 28% and the “percent of plants at shooting stage” value (Cavendish banana plants; [3]) was 10%. The “percent of plants at bagging stage” value (Cavendish banana plants; 1500 to 3000 L/ha, six months after treatment) was 11-19%, the “percent of plants at either shooting or bagging stage” value (Cavendish banana plants; [4]) was 27% and the “percent of plants at shooting stage” value (Cavendish banana plants; [4]) was 17%. The “percent of plants at either shooting or bagging stage” value (Cavendish banana plants; [5]) was 35%, the “percent of plants at shooting stage” value (Cavendish banana plants; [5]) was 22% and the “increase of average number of leaves per banana plant” value (Cavendish banana plants; regardless of dose applied (750-3000 L/ha), versus 0 L/ha) was “roughly 1.5 fold”. The “Foc TR4 detection in soil” value [1] was “No Foc TR4 was detected”, the “effect of prolonged incubation on number of surviving chlamydospores (growing colonies)” value (Foc TR4 chlamydospores; 100× dilution, 60 min versus 5 min) was “more effective in reducing the number of surviving chlamydospores” and the “efficacy on Foc TR4 colony growth” value (Foc TR4 chlamydospores; dilution of 10×, incubation time 5 minutes) was “effective”. The “efficacy on Foc TR4 colony growth” value (Foc TR4 chlamydospores; dilution of 100×, 5 and 60 minutes) was “less effective”, the “reduction in viability of Foc TR4 chlamydospores (colony growth)” value (Foc TR4 chlamydospores; first test, dilutions from 1000 up to 10×10^6-fold, 60 min) was “No significant reduction in viability” and the “efficacy against Foc TR4 chlamydospores” value (Foc TR4 chlamydospores; in vitro conditions, dependent on high concentrations) was “effective against Foc TR4 chlamydospores”. For the same molecule, the “efficacy on surviving chlamydospores” value (Foc TR4 chlamydospores; second test, 10× and 100× dilutions) was “(partially) effective” and the “number of chlamydospores that survived” value (Foc TR4 chlamydospores; second test, dilutions of 1000× and more) was “did not affect the number of chlamydospores that survived”.
